Tests used:
synovial MSCs [1] = assay: Proliferation assay of synovial MSCs with recombinant protein (MTT assay); assay type: cell-based, human; settings: for effect of inhibitor on pro-proliferative activity of Activin A / cell count (MTT assay): 0.5% FBS + rh Activin A + inhibitor, FIG. 5E; for proliferation activation of MSCs (MTT assay): recombinant protein added to normal growth medium (10% FBS) up to 100 times the ED50, FIG. 3C
Protocol: Primary human synovial cells were isolated from the synovial tissues obtained from patients who underwent total knee arthroplasty (TKA), as described in Sekiya I. et al, Clin Orthop Relat Res, 2015, 473(7), pp. 2316 to 2326. That is, first, 0.5 to 1 mg of synovium obtained by incising the suprapatellar bursa was subjected to collagenase D treatment (Sigma, MO, USA, 3 hours at 37° C.) to disperse nucleated cells. Debris was removed by passing the cell dispersion through a 70 μm nylon mesh. Nucleated cells were seeded in a 15 cm dish at 5.7×10^2 cells/cm^2 and maintained and cultured in MEM-alpha medium supplemented with 10% FBS and antibiotics (Gibco, MA, USA) for 14 days. The cells were then separated from the dish in TripLE solution (Gibco) and seeded twice more in a new dish to obtain a sufficient cell count to be used in the experiments. Note that in all experiments, cells within 6 passages were used.
To evaluate the pro-proliferative activity of recombinant proteins (IL6, IL8, IL10, and Activin A), MTT assays were performed (see FIGS. 3C and 5C-E). Synovial MSCs were seeded to 1×10^3 cells/well in 96-well plates and cultured in 0.2 mL of normal growth medium 1 day before being subjected to recombinant protein treatment. On the following day, the medium was replaced with a fresh one (normal growth medium or medium with a reduced FBS concentration of 0.5% and recombinant protein added (10 times the concentration of ED50 or 100 times the concentration of ED50)). MTT assays were performed at days 0, 1, 3, 5, and 7 according to the method described in Denizot F. et al., J Immunol Methods, 1986, 89(2), pp. 271 to 277.
In addition, the present inventors tried to clarify the molecular mechanism of MSC proliferative activity by Activin A. It has been reported that the ERK and PI3K signal transduction pathways are activated for MSC proliferation (see Uomizu, M. et al, J Med Dent Sci., 2018, vol. 65, pp. 73 to 82). With the above in mind, Activin A (rh Activin A) was applied to synovial MSCs in the presence of PI3K-PKB/Akt and Erk1/Erk2, a specific inhibitor for each of these signal transduction pathways, and the cell count was measured by MTT assay.

synovial MSCs [2] = assay: In-vitro differentiation assay of MSCs (cartilage, bone, adipocytes); assay type: cell-based, human; settings: added to chondrogenic differentiation medium, pellet culture 2 weeks; FIG. 6C
Protocol: In-vitro differentiation assays were performed according to the method described in Colter D C. et al, Proc Natl Acad Sci USA, 2001, 98, pp. 7841 to 7845.
To form chondrogenic spheroids, 2.5×10^5 cells were transferred into 15 mL polypropylene tubes (BD Biosciences) and subjected to centrifugation at 450×g for 10 minutes. Then, the cell pellets were cultured in chondrogenic medium containing 1000 ng/mL rhBMP-2 (Infuse Bone Graft; Medtronic, TN, USA), 10 ng/mL […], and 100 nM dexamethasone (Sigma-Aldrich, MO, USA) for 14 days.
For calcification, cells were cultured in normal growth medium supplemented with 1 nM dexamethasone, 20 mM β-glycerophosphate, and 50 μg/mL ascorbic acid-2-phosphate (Sigma-Aldrich) for 21 days. Calcified nodule formation was visualized by alizarin red staining (Sigma-Aldrich).
For adipogenesis, the cells were cultured for 21 days in MEM-alpha supplemented with 10% FBS, 100 nM dexamethasone (Sigma-Aldrich), 0.5 mM IBMX (isobutyl-1-methylxanthine; Sigma-Aldrich), and 50 μM indomethacin (Wako, Tokyo, Japan). The adipogenic cultures were immobilized and stained with Oil Red O solution (Sigma-Aldrich).

C57BL/6J mice = assay: Medial meniscus anterior 1/2 resection model; assay type: in vivo, mouse; settings: intra-articular on day 7; 10 days after resection; FIG. 7A
Description: Twenty male C57BL/6J mice (8 weeks old, weight: about 25 g) were used for this study (5 mice in each group. ORIENTAL YEAST Co., Ltd. Tokyo, Japan). After anesthesia by isoflurane inhalation, a straight incision was made in the left anterior knee, and the anterior central side of the joint capsule was cut. The patellar tendon was then dislocated laterally to expose the anterior corner of the medial meniscus (see Hiyama K. et al, J Orthop Res., 2017, 35(9), pp. 1958 to 1965). The anterior corner of the meniscus was cut and dislocated anteriorly using forceps. The medial meniscus was cut perpendicularly at the medial collateral ligament, and the anterior portion of the medial meniscus was resected in a microscopic operation using a surgical microscope. The skin was closed in layers with non-absorbable sutures. Note that the right knee was subjected to sham surgery. In addition, the mice were kept under a 12-hour light/dark cycle with free movement, free feeding, and drinking water.
Recombinant human Activin A (42 ng/6 μL in PBS) and/or rh PDGF-AA (174 ng/6 μL in PBS) was injected intra-articularly on postoperative day 7 (see Hoshino T. et al., BMC Musculoskelet Disord., 2018, 19(1): 291). […]
Tissue samples were fixed in 4% paraformaldehyde for 3 to 4 days and subjected to decalcification in 20% ethylenediaminetetraacetic acid (EDTA) solution for 21 days. Then, they were embedded in paraffin wax. The specimens were then cut to a 5 μm thickness in the sagittal plane and stained with safranin O/Fast Green or hematoxylin/eosin (H&E) to histologically evaluate meniscus regeneration.
A modified Pauli's score system was used to histologically quantify meniscus regeneration (see Hiyama K. et al, J Orthop Res. 2017, 35(9), pp. 1958 to 1965). Histological evaluation was performed by two investigators in a blind manner.
Type I and II collagen immunostaining was performed as described in Tsuji K. et al, Cell Transplant., 2017, 26(6), pp. 1089 to 1102. That is, sections were subjected to deparaffinization with xylene (Wako Pure Chemical Industries, Tokyo, Japan), rehydrated stepwise with alcohol, and saturated with phosphate buffered saline (PBS). For type II collagen staining, the samples were pretreated with 50 mM Tris-HCl buffer (Wako Pure Chemical Industries) containing 0.4 mg/ml Proteinase K (Dako, Agilent Technologies, Santa Clara, Calif., USA) for 10 min. For type I collagen staining, no digestion with Proteinase K was performed.
Next, the cells were treated with methanol containing 0.3% hydrogen peroxide for 30 minutes to suppress the activity of endogenous peroxidase. As primary antibodies, anti-type I collagen antibody (1:200 dilution; Abcam cat. #ab34712, Cambridge, UK) or anti-type II collagen antibody (1:1000 dilution; Abcam […], Cambridge, UK) were added to the sections and incubated at 4° C. overnight. Then, the sections were rinsed with 0.1% PBS-Triton X-100 (MP Biomedicals Inc., Solon, Ohio, USA) and incubated with secondary antibodies diluted 1:200 [Biotinylated goat-derived anti-rabbit immunoglobulin G (IgG), Vector Laboratories, Burlingame, Calif., USA]. Then, the sections were rinsed, the signals were visualized with Vectastain ABC Reagent (Vector Laboratories), and diaminobenzidine staining (DAB, Vector Laboratories) was applied. In addition, the sections were contrast stained with hematoxylin (Muto Pure Chemicals, Tokyo, Japan).

[3] = tested on: rat model of total articular cartilage loss; assay: Full thickness articular cartilage defect model; assay type: in vivo; settings: 4 weeks after the defect, FIG. 8
Protocol: Next, in order to verify the regeneration of damaged articular cartilage and the suppression of degenerative degeneration, a model of full thickness articular cartilage defect was prepared to examine the effects of rh Activin A administration. Specifically, a 1.4 mmφ total articular cartilage loss was prepared in the femoral intercondylar region using an airtome, and 180 ng of Activin A (rh Activin A) was injected intra-articularly 1 week later.

[4] = tested on: rat meniscus damage model; settings: intra-articular administration; cited from earlier work

| Molecule | effect of inhibitor on pro-proliferative activity of Activin A / cell count (MTT assay) (synovial MSCs [1]) | proliferation activation of MSCs (MTT assay) (synovial MSCs [1]) | also measured |
| --- | --- | --- | --- |
| O=c1[nH]c2ccccc2n1C1CCN(Cc2ccc(-c3nc4cc5[nH]cnc5cc4nc3-c3ccccc3)cc2)CC1 [Akt1/2, reference compound] | completely eliminated |  |  |
| COc1ccc(-c2ccc3c(N4CCOCC4)nc(N4C[C@@H](C)O[C@@H](C)C4)nc3n2)cc1CO [KU0063794, reference compound] | completely eliminated |  |  |
| COc1cccc(-c2cc(=O)c3ccccc3o2)c1N [PD98059, reference compound] | further reduced |  |  |
| IL6: recombinant human IL6 protein |  | no proliferation activation of MSCs was observed |  |
| IL8: recombinant human IL8 protein |  | no proliferation activation of MSCs was observed |  |
| PDGF |  |  | formation of chondrocyte aggregates (wet weight) (synovial MSCs [2]): effect of promoting the formation of chondrocyte aggregates; vascular invasion in the regenerated region (C57BL/6J mice): observed; chondrogenic differentiation of the formed tissue [3]: no significant promotion effect; formation of fibrocartilage-like tissue in the articular cartilage defect site ([3]; intra-articular 1 week after defect (rh Activin A 180 ng/knee, rrPDGF-AA 900 ng/knee), vs PBS): promote the formation of fibrocartilage-like tissue |
| IL10: recombinant IL10 protein (protein, UniProt P22301 19-178, looked up) Interleukin-10: SPGQGTQSENSCTHFPGNLPNMLRDLRDAFSRVKTFFQMKDQLDNLLLKESLLEDFKGYLGCQALSEMIQFYLEEVMPQAENQDPDIKAHVNSLGENLKTLRLRLRRCHRFLPCENKSKAVEQVKNAFNKLQEKGIYKAMSEFDIFINYIEAYMTMKIRN |  | no proliferation activation of MSCs was observed |  |
| FGF18: FGF18 given by intra-articular administration (protein, UniProt O76093 28-207, looked up) Fibroblast growth factor 18: EENVDFRIHVENQTRARDDVSRKQLRLYQLYSRTSGKHIQVLGRRISARGEDGDKYAQLLVETDTFGSQVRIKGKETEFYLCMNRKGKLVGKPDGTSKECVFIEKVLENNYTALMSAKYSGWYVGFTKKGRPRKGPKTRENQQDVHFMKRYPKGQPELQKPFKYTTVTKRSRRIRPTHPA |  |  | articular cartilage degeneration and cartilage thickness at the tibial plateau [4]: suppress articular cartilage degeneration and increase cartilage thickness at the tibial plateau |
